In patent US10968193B2, “Antidiabetic bicyclic compounds” (Merck Sharp & Dohme Corp., priority 2014, dated 2021):
Where “and” joins values, the source holds several entries; their conditions need not be identical. Identical values can stand only once.

Molecular target: T1, human GPR40 (Homo sapiens, UniProt O14842)
T1 construct: expressed in transfected cells; host or cells: HEK cells stably expressing the aequorin reporter
Assay: Inositol Phosphate Turnover (IP1) Assay 2
Assay type: cell-based
Settings: HEK cells stably expressing human GPR40; 15,000 cells per well; compound acoustically transferred; CisBio IP-One kit
Protocol: Human and mouse GPR40 stable cell-lines were generated in CHO cells stably expressing NFAT BLA (Beta-lactamase). A human GPR40 stable cell-line was generated in HEK cells stably expressing the aequorin expressing reporter. The expression plasmids were transfected using lipofectamine (Life Technologies) following manufacturer's instructions. Stable cell-lines were generated following drug selection.
Inositol Phosphate Turnover (IP1) Assay 2:
The assay was performed in 384-well format. HEK cells stably expressing human GPR40 were plated at 15,000 cells per well in growth medium (DMEM/10% fetal calf serum). Cell plates were then incubated 16 hours at 37 degrees in a 5% CO2 incubator.
Measurement of Inositol Phosphate Turnover (IP1) was performed using the CisBio IP-One kit (Part number 62IPAPEB). After the 16 hour incubation, the cells were washed with HEPES buffer and 10 ul of stimulation buffer (prepared as described in the kit) was added to each well. In a separate plate, compounds were diluted in DMSO (400-fold over the final concentration in the assay well) and 25 nl was acoustically transferred to the appropriate well in the assay cell plate. The plates were then incubated for 60 minutes at 37 degrees. 10 ul of detection buffer (also prepared as described in the IP-One kit) was added to each well and the plates were incubated for 60 minutes in the dark. The plates were then read in a Perkin Elmer EnVision or equivalent reader able to measure FRET. Fluorescent ratio of emission at 665 and 620 nm was then converted to IP1 concentration by back calculating from an IP1 standard curve prepared at the time of the assay.

T1 sequence (O14842 whole entry): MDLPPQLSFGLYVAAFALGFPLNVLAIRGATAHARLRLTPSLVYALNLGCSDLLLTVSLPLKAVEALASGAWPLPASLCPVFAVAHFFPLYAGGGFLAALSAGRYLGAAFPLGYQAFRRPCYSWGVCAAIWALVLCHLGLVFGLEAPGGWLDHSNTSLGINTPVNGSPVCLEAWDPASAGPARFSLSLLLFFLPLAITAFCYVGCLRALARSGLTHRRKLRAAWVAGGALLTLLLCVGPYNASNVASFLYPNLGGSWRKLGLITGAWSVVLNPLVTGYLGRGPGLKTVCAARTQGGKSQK

Going from CNCc1cc(C2CCc3ccc([C@H](C4CC4)[C@H](C)C(=O)O)cc3O2)ccc1-c1cc(OC)ncc1F (mixture of isomers) [Example 4] to COc1cc(-c2ccc(C3CCc4ccc([C@H](C5CC5)[C@H](C)C(=O)O)cc4O3)cc2CN2CC(C)C2)c(F)cn1 (mixture of isomers) [Example 35], the EC50 falls from 310 nM to 22 nM (14-fold). The second is the more potent here.

Compared with COc1cc(-c2ccc(C3CCc4ccc([C@H](C5CC5)[C@H](C)C(=O)O)cc4O3)cc2CN2CCCC2)c(F)cn1 (mixture of isomers) [Example 9], COc1cc(-c2ccc(C3CCc4ccc([C@H](C5CC5)[C@H](C)C(=O)O)cc4O3)cc2CN2CCCCC2)c(F)cn1 (mixture of isomers) [Example 63] is 1.9-fold lower in EC50: 4.3 nM for the first, 2.3 nM for the second.

Going from COc1cc(-c2ccc(C3CCc4ccc([C@H](C5CC5)[C@H](C)C(=O)O)cc4O3)nc2CN2CCOCC2)c(F)cn1 (mixture of isomers) [Example 12] to COc1cc(-c2ccc(C3CCc4ccc([C@H](C5CC5)[C@H](C)C(=O)O)cc4O3)cc2CN2CCNCC2)c(F)cn1 (mixture of isomers) [Example 33], the EC50 rises from 60 nM to 573 nM (9.6-fold).

Going from COc1cc(-c2ccc(C3CCc4ccc([C@H](C5CC5)[C@H](C)C(=O)O)cc4O3)cc2CN2CCN(C)CC2)c(F)cn1 (mixture of isomers) [Example 13, (2S,3R)-3-cyclopropyl-3-(2-(4-(5-fluoro-2-methoxypyridin-4-yl)-3-(4-methylpiperazin-1-yl)methylphenyl)chroman-7-yl)-2-methylpropanoic acid] to COc1cc(-c2ccc(C3CCc4ccc([C@H](C5CC5)[C@H](C)C(=O)O)cc4O3)cc2CN2CCC(OC)CC2)c(F)cn1 (mixture of isomers) [Example 45], the EC50 falls from 210 nM to 12 nM (18-fold). The second is the more potent here.

First: COc1cc(-c2ccc(C3CCc4ccc([C@H](C5CC5)[C@H](C)C(=O)O)cc4O3)cc2CN2CCC(F)(F)C2)c(F)cn1 (mixture of isomers) [Example 17]
Second: COc1cc(-c2ccc(C3CCc4ccc([C@H](C5CC5)[C@H](C)C(=O)O)cc4O3)cc2CN2CC(F)(F)C2)c(F)cn1 (mixture of isomers) [Example 61]
The EC50 of the first is 2.9-fold lower: 0.7 nM for the first, 2 nM for the second. The first is the more potent here.

Going from COc1cc(-c2ccc(C3CCc4ccc([C@H](C5CC5)[C@H](C)C(=O)O)cc4O3)cc2CN2CCn3cncc3C2)c(F)cn1 (mixture of isomers) [Example 40] to COc1cc(-c2ccc(C3CCc4ccc([C@H](C5CC5)[C@H](C)C(=O)O)cc4O3)cc2CN2CC(F)C2)c(F)cn1 (mixture of isomers) [Example 47], the EC50 falls from 184 nM to 3.5 nM (53-fold). The second is the more potent here.

Going from COc1cc(-c2ccc(C3CCc4ccc([C@H](C5CC5)[C@H](C)C(=O)O)cc4O3)cc2CN2CCOC3(CC3)C2)c(F)cn1 (mixture of isomers) [Example 42] to COc1cc(-c2ccc(C3CCc4ccc([C@H](C5CC5)[C@H](C)C(=O)O)cc4O3)cc2CN2CCCC(C)(C)C2)c(F)cn1 (mixture of isomers) [Example 55], the EC50 falls from 3.1 nM to 0.73 nM (4.2-fold).

Compared with COc1cc(-c2ccc(C3CCc4ccc([C@H](C5CC5)[C@H](C)C(=O)O)cc4O3)cc2CN2CCC(F)(F)CC2)c(F)cn1 (mixture of isomers) [Example 46], COc1cc(-c2ccc(C3CCc4ccc([C@H](C5CC5)[C@H](C)C(=O)O)cc4O3)cc2CN2CCC2(C)C)c(F)cn1 (mixture of isomers) [Example 49] is 4-fold higher in EC50: 1 nM for the first, 4 nM for the second.

Going from COc1cc(-c2ccc(C3CCc4ccc([C@H](C5CC5)[C@H](C)C(=O)O)cc4O3)cc2CN(C2CC2)C2CC2)c(F)cn1 (mixture of isomers) [Example 52] to COc1cc(-c2ccc(C3CCc4ccc([C@H](C5CC5)[C@H](C)C(=O)O)cc4O3)cc2CN(C2CC2)C2COC2)c(F)cn1 (mixture of isomers) [Example 53], the EC50 rises from 0.35 nM to 1.7 nM (4.9-fold).

Going from COc1cc(-c2ccc(C3CCc4ccc([C@H](C5CC5)[C@H](C)C(=O)O)cc4O3)cc2CN(C)C2CC2)c(F)cn1 (mixture of isomers) [Example 57] to COc1cc(-c2ccc(C3CCc4ccc([C@H](C5CC5)[C@H](C)C(=O)O)cc4O3)cc2CN2CC(C)(C#N)C2)c(F)cn1 (mixture of isomers) [Example 67], the EC50 rises from 0.18 nM to 15 nM (83-fold). The first is the more potent here.

Going from COc1cc(-c2ccc(C3CCc4ccc([C@H](C5CC5)[C@H](C)C(=O)O)cc4O3)cc2CN2CCOCC2(C)C)c(F)cn1 (mixture of isomers) [Example 59] to COc1cc(-c2ccc(C3CCc4ccc([C@H](C5CC5)[C@H](C)C(=O)O)cc4O3)cc2CN2CCCC2(C)C)c(F)cn1 (mixture of isomers) [Example 66], the EC50 falls from 0.98 nM to 0.65 nM (1.5-fold).

Going from COc1cc(-c2ccc(C3CCc4ccc([C@H](C5CC5)[C@H](C)C(=O)O)cc4O3)cc2CN2CCOCC23CCC3)c(F)cn1 (mixture of isomers) [Example 71] to COc1cc(-c2ccc(C3CCc4ccc([C@H](C5CC5)[C@H](C)C(=O)O)cc4O3)cc2CN2CC(C)(OC)C2)c(F)cn1 (mixture of isomers) [Example 73], the EC50 rises from 0.7 nM to 8.2 nM (12-fold). The first is the more potent here.

Compared with CCc1ccc(F)c(-c2ccc(C3CCc4ccc([C@H](C5CC5)[C@H](C)C(=O)O)cc4O3)cc2CN2CCCC2)c1 (mixture of isomers) [Example 75], CCOc1cc(-c2ccc(C3CCc4ccc([C@H](C5CC5)[C@H](C)C(=O)O)cc4O3)cc2CN(CC)CC)c(F)cn1 (mixture of isomers) [Example 76] is 2.1-fold lower in EC50: 17 nM for the first, 8.2 nM for the second.

With COc1cc(-c2ccc(C3CCc4ccc([C@H](C5CC5)[C@H](C)C(=O)O)cc4O3)cc2CN2CCCCC23CC3)c(F)cn1 (mixture of isomers) [Example 62] the EC50 was 0.2 nM and 0.99 nM.

Molecular target: T1, human GPR40
Assay: Inositol Phosphate Turnover (IP1) Assay 3
Assay type: cell-based
Settings: HEK cells stably expressing human GPR40
Outline: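 HEK cells stably expressing human GPR40, plated 16 h before, were treated with compound for 60 min at 37 °C in stimulation buffer. IP1 measured by HTRF (665/620 nm ratio) against an IP1 standard curve; activity normalized to a reference compound, EC50 from 4-parameter fit.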

Compared with COc1cc(-c2ccc(C3CCc4ccc([C@H](C5CC5)[C@H](C)C(=O)O)cc4O3)cc2CN2CCC[C@@H]2C)ccn1 (some centres unmarked) [Example 279], COc1cc(-c2ccc(C3CCc4ccc([C@H](C5CC5)[C@H](C)C(=O)O)cc4O3)cc2CN2CCC[C@H]2C)ccn1 (some centres unmarked) [Example 280] is 1.9-fold lower in EC50: 30 nM for the first, 16 nM for the second.

COc1cc(-c2ccc(C3CCc4ccc([C@H](C5CC5)[C@H](C)C(=O)O)cc4O3)cc2CN2CCCC2(C)C)ccn1 (some centres unmarked) [Example 281] and COc1cc(-c2ccc(C3CCc4ccc([C@H](C5CC5)[C@H](C)C(=O)O)cc4O3)cc2CN2CCC(C)(C)C2)ccn1 (some centres unmarked) [Example 282] are within 1.5-fold of each other in EC50: 5.7 nM for the first, 7.4 nM for the second.

Compared with COc1cc(-c2ccc([C@@H]3CCc4ccc([C@H](C5CC5)[C@H](C)C(=O)O)cc4O3)cc2CN(C(C)C)C(C)C)ccn1 [Example 284, Sodium (2S,3R)-3-cyclopropyl-3-((S)-2-(3-((diisopropylamino)methyl)-4-(2-methoxypyridin-4-yl)phenyl)chroman-7-yl)-2-methylpropanoate], COc1cc(-c2ccc(C3CCc4ccc([C@H](C5CC5)[C@@H](C)C(=O)O)cc4O3)cc2CN(C(C)C)C(C)C)ccn1 (some centres unmarked) [Example 285] is 13-fold higher in EC50: 0.3 nM for the first, 4 nM for the second.

Compared with COc1cc(-c2ccc(C3CCc4ccc([C@H](C5CC5)[C@H](C)C(=O)O)cc4O3)cc2CN(C)C(C)C)ccn1 (some centres unmarked) [Example 286], CCN(Cc1cc(C2CCc3ccc([C@H](C4CC4)[C@H](C)C(=O)O)cc3O2)ccc1-c1ccnc(OC)c1)C(C)C (some centres unmarked) [Example 287] is 3.3-fold lower in EC50: 11 nM for the first, 3.3 nM for the second.

First: COc1cc(-c2ccc(C3CCc4ccc([C@H](C5CC5)[C@H](C)C(=O)O)cc4O3)cc2CN(C)C(C)(C)C)ccn1 (some centres unmarked) [Example 288]
Second: COc1cc(-c2ccc(C3CCc4ccc([C@H](C5CC5)[C@H](C)C(=O)O)cc4O3)cc2CN2[C@H]3CC[C@@H]2CC3)ccn1 (some centres unmarked) [Example 289]
The EC50 of the first is 3.4-fold lower: 21 nM for the first, 72 nM for the second.

First: COc1cc(-c2ccc(C3CCc4ccc([C@H](C5CC5)[C@H](C)C(=O)O)cc4O3)cc2CN2C3CCCC2CC3)ccn1 (some centres unmarked) [Example 290]
Second: COc1ccc(F)c(-c2ccc(C3CCc4ccc([C@H](C5CC5)[C@H](C)C(=O)O)cc4O3)cc2CN2CCCCC23CC3)n1 (some centres unmarked) [compound 190]
The EC50 of the first is 5.6-fold higher: 22 nM for the first, 3.9 nM for the second. The second is the more potent here.

Going from CCN(CC)Cc1cc(C2CCc3ccc([C@H](C4CC4)[C@H](C)C(=O)O)cc3O2)ccc1-c1cc(OC)ncc1C#N (some centres unmarked) [Example 291] to CCN(Cc1cc(C2CCc3ccc([C@H](C4CC4)[C@H](C)C(=O)O)cc3O2)ccc1-c1cc(OC)ncc1C#N)C(C)C (some centres unmarked) [Example 294], the EC50 falls from 3.1 nM to 0.5 nM (6.2-fold).

COc1cc(-c2ccc(C3CCc4ccc([C@H](C5CC5)[C@H](C)C(=O)O)cc4O3)cc2CN(C(C)C)C(C)C)c(C#N)cn1 (some centres unmarked) [Example 292] and COc1cc(-c2ccc(C3CCc4ccc([C@H](C5CC5)[C@H](C)C(=O)O)cc4O3)cc2CN2CCCCC23CC3)c(C#N)cn1 (some centres unmarked) [Example 293] are within 1.5-fold of each other in EC50: 0.1 nM for the first, 0.08 nM for the second.

C[C@H](C(=O)O)[C@H](c1ccc2c(c1)OC(c1ccc(-c3cc(O)ncc3C#N)c(CN3CCCCC34CC4)c1)CC2)C1CC1 (some centres unmarked) [Example 295] showed an EC50 of 85 nM.
